Values joined by “and” are separate entries in the source; they are usually repeats but may differ in a detail not shown here. Equal entries are not always repeated. “Also recorded” adds a separate entry of the source.
Key:
[1] = In vitro simulated gastric digestion of model lipid emulsions in SGF, quantitation by GC-FID; format: in vitro ADME
Procedure: Emulsions of model lipid compounds were prepared in a simulated gastric fluid (SGF) formulated as described in the United States Pharmacopeia. SGF contained 3.2% w/v pepsin in 0.03 M NaCl and 0.1 M HCl (pH 1.2). Different sample solutions of model lipid compounds in SGF were prepared and methyl C21:0 was added as an internal standard (IS) for quantitative purposes. Homogenization was performed in an Omnimixer (Sorvall, Newton, PA, USA) at 10,000 rpm for 5 min at 1-min intervals, as described elsewhere. […] Samples of 1, 2, 3 and 4 mL (~16 μmol mL^−1 of each compound) were used. • - Two methyl 9,10-epoxysteatate emulsions, i.e., 5 and 15 mg mL^−1, both with 10 mg mL^−1 of the IS, in SGF. Samples of 1, 2, 3 and 4 mL (16 and 46 μmol mL^−1) were used. • - Three methyl linoleate hydroperoxides emulsions, i.e., 5, 7.5 and 10 mg mL^−1, with 1, 1.5 and 2 mg mL^−1 of the IS, respectively. Additional methyl hydroperoxides emulsions at the same concentrations were prepared adjusting the pH to 3.0 and 6.6 with 1 M NaHCO3. Samples of 4 mL (15.3, 23.0 and 30.6 μmol mL^−1) were used.
Gastric digestion was simulated using a classical in vitro model. Emulsions of lipid model compounds prepared as described in Section 2.3. were used for digestion assays immediately after preparation. Triplicate emulsions were incubated in a shaking water bath for 3 h at 37 °C/100 rpm.
Lipids were thoroughly extracted with 1:1 hexane:diethyl ether after vigorous shaking in a vortex and centrifugation at 2000 rpm. Hexane and diethyl ether have been previously used for lipid extraction of oil-in-water emulsions. The extraction procedure was repeated three times and the organic extracts were pooled and washed with distilled water. After filtration through anhydrous sodium sulfate, the solvent was evaporated in a rotatory evaporator under reduced pressure at room temperature and the extracted lipids were dried using a stream of nitrogen.
Initial and digested samples were analyzed by gas-liquid chromatography using an HP 6890 Series chromatograph (Hewlett-Packard, Avondale, PA, USA) equipped with a split-splitless injector operating in the split mode with a 40:1 split ratio at 250 °C, a J&W DB-Wax fused-silica capillary column, 60 m × 0.25 mm I.D., film thickness 0.25 μm (J&W Scientific, Folsom, CA, USA) and a flame ionization detector that was used at 250 °C. The analyses were run using hydrogen as carrier gas at 1 mL min^−1 and under isothermal conditions using 230 °C for 25 min. Injections were carried out automatically using a 6890 Series autosampler (Agilent Technologies, Karlsruhe, Germany). A volume of 1 μL of sample dissolved in diethyl ether (~5 mg mL^−1) was analyzed.

[2] = rat, in vivo; cited from earlier work
[3] = equimolar mixture, 16 μmol mL^−1 each, sample volume 1 mL, SGF pH 1.2, 3 h 37 °C
[4] = equimolar mixture, 16 μmol mL^−1 each, sample volume 2 mL, SGF pH 1.2, 3 h 37 °C
[5] = equimolar mixture, 16 μmol mL^−1 each, sample volume 3 mL, SGF pH 1.2, 3 h 37 °C
[6] = equimolar mixture, 16 μmol mL^−1 each, sample volume 4 mL, SGF pH 1.2, 3 h 37 °C
[7] = tested alone, initial 15.79 μmol mL^−1, sample volume 1 mL, SGF pH 1.2
[8] = tested alone, initial 15.79 μmol mL^−1, sample volume 2 mL, SGF pH 1.2
[9] = tested alone, initial 15.79 μmol mL^−1, sample volume 3 mL, SGF pH 1.2
[10] = tested alone, initial 15.79 μmol mL^−1, sample volume 4 mL, SGF pH 1.2
[11] = tested alone, initial 46.03 μmol mL^−1, sample volume 1 mL, SGF pH 1.2
[12] = tested alone, initial 46.03 μmol mL^−1, sample volume 2 mL, SGF pH 1.2
[13] = tested alone, initial 46.03 μmol mL^−1, sample volume 3 mL, SGF pH 1.2
[14] = tested alone, initial 46.03 μmol mL^−1, sample volume 4 mL, SGF pH 1.2

CCCCCCC(=O)CCCCCCCCCCC(=O)OC [methyl 12-oxostearate]
Change after simulated gastric digestion (in words) ([1]; equimolar mixture, 16 μmol mL^−1 each, 1-4 mL, SGF pH 1.2): remained unaltered; also recorded: remained at the starting levels | Final Concentration [1, 3]: 16.11 ± 0.21 c μmol mL^−1 | Final Concentration [1, 4]: 15.80 ± 0.37 c μmol mL^−1 | Final Concentration [1, 5]: 15.88 ± 0.73 c μmol mL^−1 | Final Concentration [1, 6]: 16.15 ± 0.58 c μmol mL^−1

CCCCCCC(O)CCCCCCCCCCC(=O)OC (centres unmarked) [methyl 12-hydroxystearate]
Final Concentration [1, 3]: 15.92 ± 0.40 c μmol mL^−1 | Final Concentration [1, 4]: 15.45 ± 1.03 c μmol mL^−1 | Final Concentration [1, 5]: 16.13 ± 0.39 c μmol mL^−1 | Final Concentration [1, 6]: 15.51 ± 1.13 c μmol mL^−1

CCCCCCCCC1OC1CCCCCCCC(=O)OC (stereo not drawn) [methyl 9,10-epoxystearate, Methyl trans-9,10-epoxystearate]
Losses after in vitro gastric digestion, range over all samples ([1]; all concentrations and sample volumes tested, SGF pH 1.2): 17.8–58.8% | Final Concentration [1, 3]: 7.52 ± 0.73 a μmol mL^−1 | Loss % after Digestion [1, 3]: 52.7 ± 4.6 B % | Final Concentration [1, 4]: 7.79 ± 0.65 ab μmol mL^−1 | Loss % after Digestion [1, 4]: 51.3 ± 4.0 AB % | Final Concentration [1, 5]: 8.89 ± 0.43 b μmol mL^−1 | Loss % after Digestion [1, 5]: 44.4 ± 2.7 A % | Final Concentration [1, 6]: 9.55 ± 0.40 b μmol mL^−1 | Loss % after Digestion [1, 6]: 40.3 ± 2.5 A % | Final [9,10-Epoxystearate] [1, 7]: 6.50 ± 1.07 a μmol mL^−1 | Loss % after Digestion [1, 7]: 58.8 ± 6.8 D % | Final [9,10-Epoxystearate] [1, 8]: 7.20 ± 0.80 ab μmol mL^−1 | Loss % after Digestion [1, 8]: 54.4 ± 5.0 CD % | Final [9,10-Epoxystearate] [1, 9]: 8.00 ± 0.48 ab μmol mL^−1 | Loss % after Digestion [1, 9]: 49.3 ± 3.0 CD % | Final [9,10-Epoxystearate] [1, 10]: 8.97 ± 0.60 b μmol mL^−1 | Loss % after Digestion [1, 10]: 43.2 ± 3.8 BC % | Final [9,10-Epoxystearate] [1, 11]: 26.16 ± 2.24 a μmol mL^−1 | Loss % after Digestion [1, 11]: 43.2% and 43.2 ± 4.9 BC % | Final [9,10-Epoxystearate] [1, 12]: 30.53 ± 1.48 a μmol mL^−1 | Loss % after Digestion [1, 12]: 33.7 ± 3.2 B % | Final [9,10-Epoxystearate] [1, 13]: 35.06 ± 0.81 b μmol mL^−1 | Loss % after Digestion [1, 13]: 23.8 ± 1.8 A % | Final [9,10-Epoxystearate] [1, 14]: 37.82 ± 1.96 b μmol mL^−1 | Loss % after Digestion [1, 14]: 17.8% and 17.8 ± 4.3 A %

linoleic acid hydroperoxides
Share decomposed to a variety of compounds in the stomach [2]: about 70%

Source: PMC8471306, “Chemical Changes of Hydroperoxy-, Epoxy-, Keto- and Hydroxy-Model Lipids under Simulated Gastric Conditions” (Foods, 2021)
